Measurements: article PMC7377239, “Cardiovascular Effects of Polychlorinated Biphenyls and Their Major Metabolites” (Environmental Health Perspectives, 2020)
Counter-ions that a name gives are not always drawn. Like-named read-outs stand apart in the source and are kept apart here.

Test system: iCell endothelial cells (human iPSC-derived ECs)
Experiment: Tube formation (tubulogenesis) assay in iCell endothelial cells, 18 h
Type: cell-based
Settings: Homo sapiens, Endothelial cell, 18 hr; for activity at 0.1 µM: 0.10 µM
Experimental: The culture conditions of iCell®-endothelial cells were as reported elsewhere ([Iwata et al. 2017]). Briefly, T75 flasks were coated with a fibronectin solution ( 3 μg/cm^2 ) followed by incubation for 1–2 h. Cells were thawed for 3 min in a 37°C water bath. Thawed cells were added to maintenance medium made of VascuLife VEGF Medium Complete Kit, excluding the supplied FBS, and iCell® Endothelial Cells Medium Supplement. The final formulation of the maintenance medium is detailed in ([Iwata et al. 2017]). The aliquoted fibronectin solution was aspirated from the T75 flasks, and cells were seeded at 1.0×10^4 cells/cm^2 . Cells were maintained at 37°C and 5% CO2 with media changes occurring every 2 d and passaged every 3–4 d using TrypLE™ Express. All experiments were conducted on cells between passages 1 and 5.
Tube formation assays were performed on Geltrex™ LDEV-free reduced growth factor basement membrane using both iCell®-endothelial cells and HUVECs in 384-well format exactly as detailed in Iwata et al. ([2017]). Negative controls included media-only and vehicle control (i.e., 0.5% vol/vol DMSO in cell culture media) wells. Positive assay controls were consistent with previously published reports ([Iwata et al. 2017]) and included TAB ( 50μM ) as a cytotoxic control, and nocodazole ( 0.01–1μM ), suramin ( 0.5–50μM ), histamine ( 0.1–100μM ), and chloroquine ( 1–500μM ) as chemicals associated with specific effects on ECs. Each test chemical was screened in triplicate for each concentration. Briefly, for iCell®-endothelial cells, starvation media consisted of VascuLife® basal medium with 4 mM L-glutamine LifeFactor and 0.1% iCell®-endothelial cells medium supplement. To counter dilution effects, a 2× concentration of the HUVEC maintenance medium supplemented with additional VEGF was created (EGM™-2 BulletKits™ at 2× concentration; also the VEGF component was replaced with 12.5 ng/mL VEGF). Geltrex™ LDEV-free reduced growth factor basement membrane was thawed overnight and dispensed into 384-well plates ( 10μL/well ) with tapping and rotating to evenly coat. The plates were incubated for 1 h in a cell culture incubator at 37°C and 5% CO2 . A 2× PCB plate (containing all of the PCBs and metabolites in dose–response) was prepared in basal media and added, 25μL per well, to the Geltrex™ coated plates. On separate plates, cells were seeded 7,500 (iPSC- ECs) or 3,500 (HUVEC) cells/well. Cells were exposed to chemicals overnight at 37°C and 5% CO2 and stained with 3× concentration of calcein AM ( 25μL /well, 6μmol/L ) for 15 min before imaging. Images were captured at 4× magnification with the FITC filter (calcein AM). Images were analyzed with the angiogenesis module software within MetaXpress™ (Molecular Devices).
Phenotypic responses were quantitatively assessed using concentration–response modeling as detailed elsewhere ([Sirenko et al. 2017]). Briefly, phenotypic readouts were normalized to vehicle controls and fit to a four-parameter logistic model in R studio software (version 3.1.1; R Development Core Team). Following EPA guidance on dose–response modeling, a cutoff of one standard deviation across means of vehicle control (i.e., 0.5% vol/vol DMSO in cell culture media) wells was applied to determine the point-of-departure (POD) values ([U.S. EPA 2012]). In the absence of a concentration–response, the highest tested concentration (i.e., 100μM ) was assigned as “no observable adverse effect level.” The concentration–response assessment R script, as well as templates for vehicle and concentration–response data, are available as a supplement to Sirenko et al. ([2017]). The ability of physicochemical properties to predict differences in PODs were evaluated by multiregression and mixed-effects modeling using R.

[1] = iPSC-EC tube formation, 0.00 µM control = 100.00, read-out: endo.mtl.18hr
[2] = iPSC-EC tube formation, 0.00 µM control = 100.00, read-out: endo.tlps.18hr
[3] = iPSC-EC tube formation, 0.00 µM control = 100.00, read-out: endo.tta.18hr
[4] = iPSC-EC tube formation, 0.00 µM control = 100.00, read-out: endo.ttl.18hr
[5] = iPSC-EC tube formation, top concentration 100.00 µM, read-out: endo.mtl.18hr POD
[6] = iPSC-EC tube formation, top concentration 100.00 µM, read-out: endo.tlps.18hr POD
[7] = iPSC-EC tube formation, top concentration 100.00 µM, read-out: endo.tta.18hr POD
[8] = iPSC-EC tube formation, top concentration 100.00 µM, read-out: endo.ttl.18hr POD
[9] = endothelial cells (endo), tube formation mtl, read-out: POD endo.mtl.18hr
[10] = endothelial cells (endo), tube formation tlps, read-out: POD endo.tlps.18hr
[11] = endothelial cells (endo), tube formation tta, read-out: POD endo.tta.18hr
[12] = endothelial cells (endo), tube formation ttl, read-out: POD endo.ttl.18hr

## Oc1cc(Cl)cc(-c2cccc(Cl)c2)c1 [5-OH PCB 11]
[1]
  activity at 0.01 µM: 117%
  activity at 0.1 µM: 102%
  activity at 1 µM: 109%
  activity at 10 µM: 53.8%
  activity at 100 µM: 46.3%
[2]
  activity at 0.01 µM: 105%
  activity at 0.1 µM: 110%
  activity at 1 µM: 124%
  activity at 10 µM: 26.9%
  activity at 100 µM: 12.3%
[3]
  activity at 0.01 µM: 155%
  activity at 0.1 µM: 125%
  activity at 1 µM: 134%
  activity at 10 µM: 38.5%
  activity at 100 µM: 1.58%
[4]
  activity at 0.01 µM: 155%
  activity at 0.1 µM: 125%
  activity at 1 µM: 132%
  activity at 10 µM: 37.3%
  activity at 100 µM: 2.12%
[5]
  minimal effective concentration: 5.28 µM
[6]
  minimal effective concentration: 5.71 µM
[7]
  minimal effective concentration: 6.97 µM
[8]
  minimal effective concentration: 7.34 µM

## Oc1cccc(-c2ccc(Cl)cc2)c1 [3'-OH-PCB 3]
[9]
  minimal effective concentration: 0.36 µM
[10]
  minimal effective concentration: 1.03 µM
[11]
  minimal effective concentration: 0.49 µM
[12]
  minimal effective concentration: 0.51 µM

## Oc1ccc(-c2cccc(Cl)c2)cc1Cl [4-OH PCB11]
[1]
  activity at 0.01 µM: 108%
  activity at 0.1 µM: 111%
  activity at 1 µM: 106%
  activity at 10 µM: 95.5%
  activity at 100 µM: 52.6%
[2]
  activity at 0.01 µM: 105%
  activity at 0.1 µM: 99.3%
  activity at 1 µM: 114%
  activity at 10 µM: 119%
  activity at 100 µM: 14.8%
[3]
  activity at 0.01 µM: 164%
  activity at 0.1 µM: 131%
  activity at 1 µM: 144%
  activity at 10 µM: 87.6%
  activity at 100 µM: 9.99%
[4]
  activity at 0.01 µM: 164%
  activity at 0.1 µM: 135%
  activity at 1 µM: 144%
  activity at 10 µM: 85.5%
  activity at 100 µM: 11.5%
[5]
  minimal effective concentration: 17.7 µM
[6]
  minimal effective concentration: 52.5 µM
[7]
  minimal effective concentration: 15.8 µM
[8]
  minimal effective concentration: 16.1 µM

## Oc1cc(Cl)c(-c2cc(Cl)ccc2Cl)cc1Cl [4-OH PCB52]
[1]
  activity at 0.01 µM: 114%
  activity at 0.1 µM: 119%
  activity at 1 µM: 111%
  activity at 10 µM: 84.5%
  activity at 100 µM: 0%
[2]
  activity at 0.01 µM: 107%
  activity at 0.1 µM: 109%
  activity at 1 µM: 129%
  activity at 10 µM: 70.9%
  activity at 100 µM: 0%
[3]
  activity at 0.01 µM: 144%
  activity at 0.1 µM: 116%
  activity at 1 µM: 118%
  activity at 10 µM: 86%
  activity at 100 µM: 0%
[4]
  activity at 0.01 µM: 144%
  activity at 0.1 µM: 125%
  activity at 1 µM: 124%
  activity at 10 µM: 85.7%
  activity at 100 µM: 0%
[5]
  minimal effective concentration: 9.52 µM
[6]
  minimal effective concentration: 8.32 µM
[7]
  minimal effective concentration: 15 µM
[8]
  minimal effective concentration: 15.2 µM

## O=S(=O)(O)Oc1cccc(-c2ccc(Cl)cc2)c1 [3'-PCB 3 sulfate]
[9]
  minimal effective concentration: 0.58 µM
[10]
  minimal effective concentration: 38.6 µM
[11]
  minimal effective concentration: 11.6 µM
[12]
  minimal effective concentration: 8.75 µM

## Clc1cccc(-c2cccc(Cl)c2)c1 [PCB 11, 3,3′-Dichlorobiphenyl]
[9]
  minimal effective concentration: 100 µM
[10]
  minimal effective concentration: 100 µM
[11]
  minimal effective concentration: 100 µM
[12]
  minimal effective concentration: 100 µM

## Clc1ccc(Cl)c(-c2c(Cl)ccc(Cl)c2Cl)c1 [PCB 95, 2,2′,3,5′,6-pentachlorobiphenyl]
[9]
  minimal effective concentration: 48.6 µM
[10]
  minimal effective concentration: 53.9 µM
[11]
  minimal effective concentration: 48.7 µM
[12]
  minimal effective concentration: 55.7 µM

## O=S(=O)(O)Oc1ccc(-c2ccc(Cl)cc2)cc1 [4'-yl PCB 3 sulfate]
[1]
  activity at 0.01 µM: 99.2%
  activity at 0.1 µM: 105%
  activity at 1 µM: 98.2%
  activity at 10 µM: 74.7%
  activity at 100 µM: 60.3%
[2]
  activity at 0.01 µM: 113%
  activity at 0.1 µM: 129%
  activity at 1 µM: 137%
  activity at 10 µM: 85.4%
  activity at 100 µM: 28%
[3]
  activity at 0.01 µM: 157%
  activity at 0.1 µM: 138%
  activity at 1 µM: 128%
  activity at 10 µM: 81.2%
  activity at 100 µM: 41.8%
[4]
  activity at 0.01 µM: 149%
  activity at 0.1 µM: 134%
  activity at 1 µM: 120%
  activity at 10 µM: 76.8%
  activity at 100 µM: 44.3%
[5]
  minimal effective concentration: 4.33 µM
[6]
  minimal effective concentration: 11.7 µM
[7]
  minimal effective concentration: 16.8 µM
[8]
  minimal effective concentration: 11 µM
